The values that follow come from PubChem BioAssay (NCI).

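Method: 48-hour compound exposure of cells in 96-well plates, five concentrations, linear interpolation of endpoints. GI50 = concentration required for 50% inhibition of growth. Definition used: TGI = concentration required for complete inhibition of growth.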

Test systems include A549 NSCLC; CAKI-1 renal; EKVX NSCLC; MALME-3M melanoma; SF-295 CNS; SF-539 CNS; SK-MEL-2 melanoma; SNB-19 CNS; SW-620 colon; UO-31 renal.
Common to all, as to assay: growth of human tumour cells (NCI), 48 h

With `CC(C)N(CC(=O)O)CC(=O)O`, the TGI in the test with A549 NSCLC, in the test with CAKI-1 renal, in the test with EKVX NSCLC, with MALME-3M melanoma, in the test with SF-295 CNS and in the test with SF-539 CNS was above 100 µM in each case. Besides, the TGI with SK-MEL-2 melanoma, with SNB-19 CNS, in the test on SW-620 colon and in the test on UO-31 renal was above 100 µM each time.

On to `CCCCCCCCCCCCCCCCCCN(C)CC(COC)OP(=O)([O-])OCC[N+](C)(C)C` (centres undefined), for which the TGI with A549 NSCLC worked out at 7.69 µM; in the test with CAKI-1 renal, 5.27 µM; in the test on EKVX NSCLC it was 28.1 µM; with MALME-3M melanoma, 26.6 µM; with SF-295 CNS it was 4.71 µM; with SF-539 CNS, 13 µM. Moreover, the TGI with SK-MEL-2 melanoma is 30.2 µM; in the test with SNB-19 CNS it was 2.5 µM; with SW-620 colon it was 15.6 µM; in the test with UO-31 renal, 20.2 µM.

As to `CC1CC(C)(O)C2C3(C)CCCC2(COC3=O)C12CCC1(CCOC1=O)O2` (centres undefined), the TGI with A549 NSCLC, in the test on CAKI-1 renal, in the test with EKVX NSCLC, in the test with MALME-3M melanoma, in the test on SF-295 CNS and in the test on SF-539 CNS was above 250 µM in each case. For the same compound, the TGI in the test with SK-MEL-2 melanoma, with SNB-19 CNS, with SW-620 colon and in the test on UO-31 renal was above 250 µM in each case.

Consider `O=C1c2cc3c(cc2[C@@H]2C(O)[C@H]4O[C@H]4C4CCN1C42)OCO3` (some centres undefined), for which the TGI in the test with A549 NSCLC, with CAKI-1 renal, with EKVX NSCLC, in the test on MALME-3M melanoma, in the test on SF-295 CNS and in the test on SF-539 CNS was above 37.5 µM throughout. Moreover, the TGI in the test on SK-MEL-2 melanoma, in the test on SNB-19 CNS, in the test with SW-620 colon and in the test with UO-31 renal was above 37.5 µM in each case.

Turning to `Cc1csc2nc(-c3cc([N+](=O)[O-])c(Cl)cc3Cl)c(/C=N/N=C(N)N)n12`, the TGI in the test on A549 NSCLC is 40.9 µM; with CAKI-1 renal it was 29.8 µM; in the test on EKVX NSCLC, 38.2 µM; in the test on MALME-3M melanoma it was 35.3 µM; in the test with SF-295 CNS it was 38.8 µM; in the test on SF-539 CNS, 35.1 µM. Moreover, the TGI in the test with SK-MEL-2 melanoma came to 26.1 µM; in the test on SNB-19 CNS, 36.5 µM; in the test with SW-620 colon, 32.5 µM; with UO-31 renal it was 29.4 µM.

Turning to `Nc1[nH]c(=O)nc2c1cnn2COCCO`, the TGI in the test on A549 NSCLC, in the test on CAKI-1 renal, with EKVX NSCLC, in the test with MALME-3M melanoma, in the test with SF-295 CNS and with SF-539 CNS was above 100 µM in each case. Further, the TGI in the test with SK-MEL-2 melanoma, in the test on SNB-19 CNS, in the test on SW-620 colon and with UO-31 renal was above 100 µM throughout.

As for `CN(C)CCC(=O)[C@@]1(O)CC[C@H]2[C@@H]3CC=C4C[C@@H](O)CC[C@]4(C)[C@H]3CC[C@@]21C`, the TGI with A549 NSCLC is above 86.8 µM; in the test on CAKI-1 renal, 34.6 µM; in the test on EKVX NSCLC, 42.6 µM; with MALME-3M melanoma it was 28.8 µM; with SF-295 CNS it was above 73.9 µM; with SF-539 CNS, 8.61 µM. Further, the TGI with SK-MEL-2 melanoma is 37.1 µM; in the test with SNB-19 CNS, above 64.8 µM; in the test on SW-620 colon, 50.2 µM; in the test on UO-31 renal, 31.7 µM.

With `c1ccc(-c2cc3nc4ccccc4nc3cc(-c3ccccc3)[nH][nH]2)cc1`, the TGI with A549 NSCLC was above 100 µM; with CAKI-1 renal, above 100 µM; with EKVX NSCLC, above 100 µM; with MALME-3M melanoma, above 100 µM; in the test with SF-295 CNS, 88.7 µM; in the test with SF-539 CNS, above 100 µM. In addition, the TGI in the test on SK-MEL-2 melanoma, in the test with SNB-19 CNS, with SW-620 colon and in the test with UO-31 renal was above 100 µM in each case.

As to `CC(C)CC(N)C(=O)NC(CNC(CCC(N)=O)C(=O)NC(CC(C)C)C(=O)NC(CC(C)C)C(=O)O)Cc1ccc2ccccc2c1` (centres undefined), the TGI in the test with A549 NSCLC, in the test on CAKI-1 renal, in the test with EKVX NSCLC, in the test on MALME-3M melanoma, with SF-295 CNS and with SF-539 CNS was above 10 µM throughout. Moreover, the TGI in the test with SK-MEL-2 melanoma, in the test on SNB-19 CNS, in the test on SW-620 colon and in the test on UO-31 renal was above 10 µM in each case.

In the case of `CCn1c2ccccc2c2ccc(C3C4C(=O)N(c5cccc6ccccc56)C(=O)C4ON3C(C(N)=O)c3ccccc3)cc21` (centres undefined), the TGI in the test with A549 NSCLC was above 25 µM; in the test on CAKI-1 renal it was 11.3 µM; with EKVX NSCLC, above 25 µM; with MALME-3M melanoma it was above 25 µM; with SF-295 CNS, above 25 µM; in the test with SF-539 CNS, above 25 µM. The TGI in the test with SK-MEL-2 melanoma, in the test on SNB-19 CNS, in the test with SW-620 colon and in the test with UO-31 renal was above 25 µM in each case.

With `C[C@@]12CC[C@@H](O)C[C@@H]1CC[C@H]1[C@H]2CC[C@@]2(C)[C@H](c3ccc(=O)oc3)CC[C@@]12O`, the GI50 with A549 NSCLC, with CAKI-1 renal, in the test on EKVX NSCLC, with MALME-3M melanoma, in the test on SF-295 CNS and with SF-539 CNS was below 0.01 µM throughout. For the same compound, the GI50 in the test on SK-MEL-2 melanoma is below 0.01 µM; in the test with SNB-19 CNS, below 0.0104 µM; with SW-620 colon, below 0.01 µM; with UO-31 renal, below 0.01 µM. In addition, the TGI with CAKI-1 renal was determined as 0.0148 µM; in the test on EKVX NSCLC, 0.0104 µM; in the test with MALME-3M melanoma it was 0.0174 µM; in the test with SF-295 CNS it was 0.025 µM; in the test on SF-539 CNS, 0.0137 µM; in the test with SK-MEL-2 melanoma it was 0.0299 µM. Further, the TGI is 0.0755 µM in the test with SNB-19 CNS, 0.018 µM in the test on SW-620 colon and 0.0147 µM in the test with UO-31 renal.
